Key:
Settings in all cases: synthetic library passage 3, intravenous, relative to wild-type AAV9
[1] = system: brain, spinal cord, and DRG of the NHPs; test: NGS fold enrichment of synthetic library (passage 3) in NHPs, first cross-species screen; format: in vivo, cynomolgus macaques (Macaca fascicularis)
How it was run: (§1)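 Fold enrichment versus wild-type AAV9 was derived by NGS of RT-PCR-amplified RNA from nervous tissue, collected e.g. 28 days after IV dosing […]. The library (passage 3) was given to two NHPs aged 2-4 years and to 6-8-week BALB/c and C57Bl/6 mice (n=3 each).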

brain [2] = test: NGS fold enrichment of synthetic library (passage 3) in BALB/c mice, first cross-species screen; format: in vivo
How it was run: as §1

brain [3] = test: NGS fold enrichment of synthetic library (passage 3) in C57Bl/6 mice, first cross-species screen; format: in vivo
How it was run: as §1

[4] = RNA from spinal cord of NHPs, NGS
[5] = RNA from brain of BALB/c mice, NGS
[6] = RNA from brain of C57Bl/6 mice, NGS

Sequence | Fold enrichment over AAV9 in the brain of NHPs ([1]; RNA NGS, brain of NHPs) | Fold enrichment over AAV9 in the spinal cord of NHPs ([1]; RNA NGS, spinal cord of NHPs) | Fold enrichment over AAV9 in the brain of Mice (BALB/c) (brain [2]; RNA NGS, brain of BALB/c mice) | Fold enrichment over AAV9 in the brain of Mice (C57Bl/6) (brain [3]; RNA NGS, brain of C57Bl/6 mice) | Fold enrichment over AAV9 in the brain of NHPs ([1]; RNA from brain of NHPs, NGS) | Fold enrichment over AAV9 in the spinal cord of NHPs [1, 4] | Fold enrichment over AAV9 in the brain of Mice (BALB/c) (brain [2]; [5]) | Fold enrichment over AAV9 in the brain of Mice (C57Bl/6) (brain [3]; [6])
GSGQNQHSLGNYQT | 2.143 fold | 1.896 fold | 0.606 fold | 1.077 fold | – | – | – | –
GSGQNQHSLPAHRT | – | – | – | – | 1.361 fold | 0.700 fold | 0.742 fold | 0.911 fold
GSGQNQHSVHNDQT | 1.428 fold | 0.000 fold | 0.515 fold | 0.521 fold | – | – | – | –
GSGQNQHSVQVRQT | 1.116 fold | 1.909 fold | 0.916 fold | 0.782 fold | – | – | – | –
GSGQNQHYSLHKQT | 1.563 fold | 3.399 fold | 1.273 fold | 1.485 fold | – | – | – | –
GSGQNQKGMQPNQT | – | – | – | – | 1.326 fold | 3.139 fold | 1.059 fold | 0.775 fold
GSGQNQKILTLDQT | 1.080 fold | 0.371 fold | 0.314 fold | 0.291 fold | – | – | – | –
GSGQNQQALGSQRT | 1.695 fold | 1.934 fold | 0.562 fold | 1.419 fold | – | – | – | –
GSGQNQQALHNPHT | 1.553 fold | 0.664 fold | 0.213 fold | 0.638 fold | – | – | – | –
GSGQNQQAPHKKET | – | – | – | – | 1.180 fold | 0.598 fold | 0.689 fold | 0.994 fold
GSGQNQQARPLELT | 1.061 fold | 0.059 fold | 0.252 fold | 0.389 fold | – | – | – | –
GSGQNQQASGRQQT | 1.458 fold | 3.179 fold | 0.991 fold | 0.943 fold | – | – | – | –
GSGQNQQASLAMRT | 1.910 fold | 3.577 fold | 1.638 fold | 2.066 fold | – | – | – | –
GSGQNQQASLPSRT | 1.456 fold | 0.389 fold | 0.673 fold | 0.930 fold | – | – | – | –
GSGQNQQGTGVSHT | – | – | – | – | 1.371 fold | 4.295 fold | 0.749 fold | 1.417 fold
GSGQNQQGTLLHQT | 1.728 fold | 2.065 fold | 1.303 fold | 1.347 fold | – | – | – | –
GSGQNQQHANLNQT | 1.410 fold | 0.094 fold | 0.544 fold | 0.416 fold | – | – | – | –
GSGQNQQHASSNNT | – | – | – | – | 1.166 fold | 7.155 fold | 0.896 fold | 0.789 fold
GSGQNQQHHSSHTT | – | – | – | – | 1.328 fold | 2.158 fold | 0.452 fold | 0.957 fold
GSGQNQQHPSTQQT | – | – | – | – | 1.205 fold | 1.552 fold | 0.680 fold | 1.017 fold

Sequence | Fold enrichment over AAV9 in the brain of NHPs ([1]; RNA NGS, brain of NHPs) | Fold enrichment over AAV9 in the spinal cord of NHPs ([1]; RNA NGS, spinal cord of NHPs) | Fold enrichment over AAV9 in the brain of Mice (BALB/c) (brain [2]; RNA NGS, brain of BALB/c mice) | Fold enrichment over AAV9 in the brain of Mice (C57Bl/6) (brain [3]; RNA NGS, brain of C57Bl/6 mice) | Fold enrichment over AAV9 in the brain of NHPs ([1]; RNA from brain of NHPs, NGS) | Fold enrichment over AAV9 in the spinal cord of NHPs [1, 4] | Fold enrichment over AAV9 in the brain of Mice (BALB/c) (brain [2]; [5]) | Fold enrichment over AAV9 in the brain of Mice (C57Bl/6) (brain [3]; [6])
GSGQNQQHSLSSQT | – | – | – | – | 1.150 fold | 3.844 fold | 0.730 fold | 0.700 fold
GSGQNQQHSSKATT | – | – | – | – | 1.345 fold | 12.248 fold | 1.401 fold | 1.350 fold
GSGQNQQHSSSHLT | 1.581 fold | 2.782 fold | 0.859 fold | 1.091 fold | – | – | – | –
GSGQNQQHVSSPRT | 2.176 fold | 1.279 fold | 0.938 fold | 1.847 fold | – | – | – | –
GSGQNQQHYGSQGT | – | – | – | – | 1.189 fold | 0.453 fold | 0.379 fold | 1.345 fold
GSGQNQQIGESRMT | – | – | – | – | 1.279 fold | 0.103 fold | 0.453 fold | 0.890 fold
GSGQNQQIISTKIT | – | – | – | – | 1.275 fold | 0.000 fold | 0.710 fold | 0.951 fold
GSGQNQQINHRSPT | – | – | – | – | 1.173 fold | 0.748 fold | 0.220 fold | 0.259 fold
GSGQNQQIPHVHQT | – | – | – | – | 1.409 fold | 0.768 fold | 0.218 fold | 0.576 fold
GSGQNQQKLSSMST | – | – | – | – | 1.286 fold | 1.586 fold | 1.052 fold | 1.160 fold
GSGQNQQKQNHGNT | 1.695 fold | 5.349 fold | 1.340 fold | 1.538 fold | – | – | – | –
GSGQNQQKSLNGNT | – | – | – | – | 1.275 fold | 8.573 fold | 0.851 fold | 0.586 fold
GSGQNQQKVSPLLT | – | – | – | – | 1.314 fold | 1.602 fold | 0.806 fold | 0.755 fold
GSGQNQQLAITLGT | 1.011 fold | 0.000 fold | 0.143 fold | 0.877 fold | – | – | – | –
GSGQNQQLANMVTT | 1.014 fold | 1.739 fold | 0.987 fold | 1.253 fold | – | – | – | –
GSGQNQQLGSRQCT | 1.102 fold | 0.183 fold | 0.407 fold | 0.987 fold | – | – | – | –
GSGQNQQLKENRST | 2.765 fold | 0.062 fold | 1.118 fold | 1.149 fold | – | – | – | –
GSGQNQQLKNSTST | – | – | – | – | 1.235 fold | 1.703 fold | 0.538 fold | 1.063 fold
GSGQNQQLKSSAQT | 1.891 fold | 1.197 fold | 0.716 fold | 0.908 fold | – | – | – | –
GSGQNQQLPHSNLT | 1.521 fold | 1.838 fold | 0.283 fold | 0.442 fold | – | – | – | –
